Assay results taken from patent publication USRE46907E1, “Suppression of cancer growth and metastasis using nordihydroguaiaretic acid derivatives with metabolic modulators” (THE JOHNS HOPKINS UNIVERSITY, priority 2008, dated 2018).
Peptide text beside a SMILES is read from it. * marks the point of attachment. Cbz = O=C(OCc1ccccc1)*; CH2F = FC*

How the values were obtained:
PKCδ [1] = assay: Western blotting of total PKCδ and phosphor-PKCδ (Thr505) in 67NR cells; type: cell-based, mouse; details: 5 hrs, M4N 80 μM, Ro 5 μM, Ly 20 μM, Des 150 μM
Procedure: (§1) The sample volumes were adjusted by the total protein amount. Protein assay was performed by Bio-Rad Protein Assay (Bio-Rad Laboratories, Inc. Hercules, Calif.). The samples were resolved by the standard SDS-polyacrylamide gel electrophoresis and transferred to nitrocellulose membrane (Amersham Biosciences, Bjorkgatan, Sweden). The membranes were blocked with skim milk, and incubated with primary antibodies at 4° C. overnight and then with secondary antibody conjugated with horse radish peroxidase at room temperature for 2 hrs. The signals were detected by western blot chemiluminescence reagent plus (New England Nuclear Life Science Products, Boston, Mass.).

4T1 cells [2] = assay: TUNEL apoptosis assay in 4T1 cells; type: cell-based, mouse
Procedure: (§2) Cell Culture Either cell line 4T1 or 67NR was a gift from Dr. Miller (20). The cells were cultured in RPMI1640 medium supplemented with glucose (14 mM), pyruvate (1 mM), penicillin (100 units/ml), streptomycin (100 μg/ml), and fetal bovine serum (10%), buffered with 25 mM HEPES (pH 7.4). LNCaP human prostate cancer cell line was purchased from American Type Culture Collection (Manassas, Va.). The cell line was cultured in RPMI1640 medium supplemented with glucose (14 mM), pyruvate (1 mM), penicillin (100 units/ml), streptomycin (100 μg/ml), and fetal bovine serum (10%). Drugs were dissolved in dimethyl sulfoxide (DMSO) at a suitable concentration so that the final concentration of DMSO in the medium was less than 0.1%.
(§3) Apoptosis assay: Simple TLTNEL assay was conducted by using TUNEL apoptosis detection kit (Upstate, Temecula, Calif.) with some modification. For the evaluation of the effect of PKCδ wild type and dominant negative vectors on TUNEL-positive cell death, we first transfected 4T1 or 67NR cells with these vectors by effectene (Qiagen, Valencia, Calif.). Wild type PKCδ vector is constructed from wild type PKCδ gene and pEGFP (Promega, Madison, Wis.). Dominant negative PKCδ vector is constructed from PKCδ gene mutated at a 376th amino acid residue (threonine) and pEGFP (Promega, Madison, Wis.) This threonine residue is located in ATP-binding domain of protein kinase Cδ, and therefore essential for any kinase reaction of the protein so that this mutant protein supposedly function as dominant negative. As a control we used pEGFP-N3 vector was used. These vectors contain green fluorescent protein (GFP) gene to be used as a transfection marker. The vectors are kind gifts from Dr. Yuspa (National Institutes of Health, Bethesda, Md.) (88). Twenty four hours after transfection, the cells were treated with M4N, Rottlerin, or Ly294002. Then 24 hrs after this treatment with these reagents, the cells were fixed with 10% formaldehyde in phosphate buffered saline without calcium and magnesium (PBS (−)). The cells were then incubated with rabbit anti-GFP antibody (MBL International, Woburn, Mass.) followed by treatment with anti-rabbit IgG antibody conjugated with fluorescein (Promega, Madison, Wis.). TUNEL staining was conducted by using TUNEL apoptosis detection kit (Upstate, Temecula, Calif.) except for using Streptavidin-Alexa Fluor 568 (Molecular Probes, Eugene, Oreg.) instead of Avidine-Rhodamine contained in the kit. Cell death was evaluated by dividing the number of TUNEL-positive cells among the cells positive with anti-GFP staining by the number of these GFP-positive cells.

PKCδ [3] = assay: Immunocytochemistry of PKCδ cellular localization in 4T1 cells; type: cell-based, mouse; details: 4T1, 5 hrs; for nuclear staining for phosphor-PKCδ (Thr505): without Desferoxamine co-treatment
Procedure: (§4) Immunocytocheimstry: Cells were cultured on glass cover slips coated with poly-L-ornithine (Sigma, Saint Louis, Mo.). At 5 hrs after treatment with drugs, the cells were fixed with 10% formaldehyde in diluted in PBS (−) and washed with PBS (−) three times. After permeabilized by 0.2% Tryton X-100 and 1% goat serum diluted in PBS (−), the cells were blocked by PBS (−) containing 5% goat serum. The cells were then incubated with primary antibodies diluted in PBS (−) containing 0.5% bovine serum albumin (BSA), and with secondary antibodies, which is either anti-IgG conjugated with fluorescein (Vector Laboratories. Burlingame, Calif.), diluted in PBS (−) containing 0.5% BSA. The cells were observed through Zeiss fluorescent microscope (Carl Zeiss, Thornwood, N.Y.).

PKCδ [4] = assay: Western blotting of total PKCδ and phosphor-PKCδ (Thr505) in 4T1 cells; type: cell-based, mouse; details: 4T1, 5 hrs; M4N 80 μM, Ro 5 μM, Ly 20 μM, Des 150 μM
Procedure: as §1

67NR cells [5] = assay: TUNEL apoptosis assay in 67NR cells; type: cell-based, mouse
Procedure: as §2, §3

HIF [6] = assay: Western blotting of HIF in 4T1 cells; type: cell-based, mouse; details: 4T1, 5 hrs
Procedure: (§5) Western blotting: After cells had been grown in […] flasks and treated with reagents, the cells were washed with PBS (−) three times and suspended in RIP A buffer (150 mM NaCl, 50 mM Tris-HCl (pH 8,0), 0.1% SDS, 1% NP40, and 0.5% deoxycholate) supplemented with protease inhibitor cocktail (Calbiochem, San Diego, Calif.). The sample volumes were adjusted by the total protein amount. Protein assay was performed by Bio-Rad Protein Assay (Bio-Rad Laboratories, Inc. Hercules, Calif.). The samples were resolved by the standard SDS-polyacrylamide gel electrophoresis and transferred to nitrocellulose membrane (Amersham Biosciences, Bjorkgatan, Sweden). The membranes were blocked with skim milk, and incubated with primary antibodies at 4° C. overnight and then with secondary antibody conjugated with horse radish peroxidase at room temperature for 2 hrs. The signals were detected by western blot chemiluminescence reagent plus (New England Nuclear Life Science Products, Boston, Mass.).

HIF [7] = assay: Western blotting of HIF in 67NR cells; type: cell-based, mouse; details: 5 hrs
Procedure: as §5

[8] = system: PDK-1/Akt pathway-related proteins; assay: Western blotting of PDK-1/Akt pathway-related proteins in 4T1 cells; type: cell-based, mouse; details: 4T1, 5 hrs after treatment, M4N 80 μM, Desferoxamine 75 or 150 μM
Procedure: as §5

[9] = system: LNCaP human prostate cancer cells; type: cell-based; details: for effect on TUNEL-positive cell death induced by M4N: 24 hrs
Procedure: as §2, §3

LNCaP tumors = assay: Nude mice orthotropically implanted with LNCaP tumors, about eight times tumor volume, treatment from day 3; type: in vivo, mouse
Procedure: Surgical orthotropic implantation of LNCaP tumors: LNCaP cells were grown as described above. Cells growing subconfluently were collected and resuspended into the tissue culture medium without fetal bovine serum and antibiotics. After counting the number of the cells, the cell concentration was adjusted using the same medium. After 20 μl of the medium containing a selected number of cancer cells (about 5×10^7 cells) had been mixed together with the same volume of Matrigel (BD science, Bedford, Mass.), the combined solution was injected into the skin of nude mice. […] The tumor tissue extracted from the skin was excised into pieces of about 2 mm diameter. After nude mice were anesthetized by 2,2,2-Tribromoethanol (Aldrich Chemical Co. Inc., Milwaukee, Wis.), a small incision was made at the abdomen of each mouse and a tumor tissue piece was implanted in the neighbor of the prostate of each mouse. Eight days after the operation, the injection of drugs was initiated, and the drugs were injected intravenously every day for the indicated periods
As in the previous experiment (FIGS. 9 to 13), in this study we administered M4N, Ly, Ro, Etoposide, or Rapamycin to mice intravenously using CPE (25/30) solvent system (87). […] However, in this experiment we implanted about eight times the volume of tumors as in the previous experiments to detect the difference of efficacy of various combination treatments much faster. We started to treat the mice with combination treatments three days after the implantation instead of eight days, considering that the tumor volume is already large at the time of implantation in this experiment. This allows less time for possible metastasis to the transplanted tumors in this experiment than in the previous one.

4T1 cells [10] = assay: 4T1 tumor-bearing Balb/c mice (life-span, tumor size); type: in vivo, mouse; details: 5×10^4 cells, M4N 1 mg/shot, Rottlerin 100 μg/shot, three days a week from day 7
Procedure: (§6) Animals: Female Balb/e mice were obtained from Charles River Laboratories (Wilmington, Mass.). M4N and Rottlerin were dissolved into a solvent, CPE (25/30) solvent system supplied by Erimos Pharmaceutical, L.L.C. (Raleigh, N.C.) and injected into mice either intravenously or intraperitoneally, T-cell deficient male nude mice (nu/nu) were obtained from Charles River Laboratories (Wilmington, Mass.). M4N and Ly294002 were dissolved into a solvent, CPE (25/30) solvent system supplied by Erimos Pharmaceutical, L.L.C. (Raleigh, N.C.) and injected into mice intravenously.
(§7) Tumor inoculation: Either 4T1 or 67NR cells were grown as described above. Cells growing subconfluently were collected and resuspended into the tissue culture medium minus fetal bovine serum and antibiotics, After counting the number of the cells, the cell concentration was adjusted. Twenty μl of the solution containing a selected number of cancer cells (either 5×10^3 or 5×10^4 cells) was injected into each fat pad of a pair of mammary glands located close to lower limbs. Tumor size was measured by weighing tumors extracted from mouse cadavers.

[11] = system: mitochondrial membrane potential; assay: Mitochondrial membrane potential; type: cell-based
67NR cells [12] = assay: 67NR tumor-bearing Balb/c mice (life-span); type: in vivo, mouse; details: 5×10^4 cells, M4N 1 mg/shot, Rottlerin 100 μg/shot, three days a week from day 8
Procedure: as §6, §7

PKCδ [13] = assay: Immunocytochemistry of PKCδ cellular localization in LNCaP cells; type: cell-based, human; details: 5 hrs
Procedure: as §4

caspase-9 = assay: Western blotting of caspase-9 cleavage in 67NR cells; type: cell-based, mouse; details: 5 hrs, Rottlerin 5 μM, M4N 80 μM
Procedure: as §5

[14] = system: LNCaP human prostate cancer cells; assay: MTT cell growth assay in LNCaP cells; type: cell-based; details: 24 hrs, M4N 80 μM, Ro 5 μM, Ly 20 μM
Procedure: as §2
MTT assay: Cells were incubated in PBS (−) supplemented with 5% fetal calf serum and 0.5 mg/ml MTT, 3-(4,5-Dimethylthiazol-2-yl)-2,5-diphenyltetrazolium bromide (Sigma, Saint Louis, Mo.) for 2 hrs. After the incubation, the cells were dissolved in dimethyl sulfoxide and the color of the solutions was measured by a spectrophotometer at wavelengths of 540 and 690 nm. The values correlated with viable cell numbers were obtained by subtracting the optical density at 690 nm from that, at 540 nm.

[15] = 4T1, 24 hrs, with M4N 80 μM, Rottlerin 5 μM, Desferoxamine 150 μM
[16] = 26 hrs, with M4N 80 μM, Rottlerin 5 μM, Desferoxamine 150 μM

Structure (SMILES): CC(=O)N(O)CCCCCNC(=O)CCC(=O)N(O)CCCCCNC(=O)CCC(=O)N(O)CCCCCN.CS(=O)(=O)O [Desferoxamine, Desferoxamine mesylate]
- amount of phosphorylated PKCδ at Thr505 (PKCδ [1]): induced phosphorylation
- effect on cell death induced by M4N (4T1 cells [2]; [15]): generally augmented cell death even more
- effect on cell death induced by M4N (4T1 cells [2]; 4T1, 48 hr, Desferoxamine 300 μM with M4N 80 μM): enhanced cell death induced by M4N
- cellular distribution / nuclear staining of total PKCδ (PKCδ [3]): did not modulate much nuclear staining
- nuclear staining for phosphor-PKCδ (Thr505) (PKCδ [3]): only moderately increased nuclear staining
- amount of phosphorylated PKCδ at Thr505 (PKCδ [4]): induced phosphorylation
- effect on cell death induced by M4N (67NR cells [5]; [16]): generally augmented cell death even more
- effect on cell death induced by M4N (67NR cells [5]; 48 hr, Desferoxamine 300 μM with M4N 80 μM): enhanced cell death induced by M4N
- HIF stabilization (HIF [6]): induced HIF stabilization
- HIF stabilization (HIF [7]): induced HIF stabilization
- expression of phosphorylated PDK (Ser241), Akt (Ser473), PRAS40 (Thr246), Raf (Ser259), MEK (Ser217/221) [8]: not much effect

Structure (SMILES): O=C([O-])C(Cl)Cl.[Na+] [Dichloroacetate, Sodium Dichloroacetate]
- effect on TUNEL-positive cell death induced by M4N [9]: synergistically augmented TUNEL-positive cell death induced by M4N

Structure (SMILES): COc1cc([C@@H]2c3cc4c(cc3[C@@H](O[C@@H]3O[C@@H]5CO[C@@H](C)O[C@H]5[C@H](O)[C@H]3O)[C@H]3COC(=O)[C@H]23)OCO4)cc(OC)c1O [Etoposide]
- mice with lung metastasis lesions (LNCaP tumors; combination groups at 80 days after tumor implantation): 3 out of 5
- time after implantation by which all mice died (LNCaP tumors; mouse, in vivo): ≤ 24 days
- effect on TUNEL-positive cell death induced by M4N [9]: synergistically augmented TUNEL-positive cell death induced by M4N

Structure (SMILES): O=c1c(-c2ccc(O)cc2)coc2cc(O)cc(O)c12 [Genistein]
- effect on TUNEL-positive cell death induced by M4N with either Ro or Ly (4T1 cells [2]; 4T1, Genistein 50 μM, 28 hrs): significantly suppressed the cell death

Structure (SMILES): CC(=O)c1c(O)c(C)c(O)c(Cc2c(O)c3c(c(C(=O)/C=C/c4ccccc4)c2O)OC(C)(C)C=C3)c1O [Rottlerin]
- amount of phosphorylated PKCδ at Thr505 (PKCδ [1]): induced phosphorylation
- life-span of 4T1-bearing mice (4T1 cells [10]): didn't extend the life-span
- TUNEL-positive cell death (4T1 cells [2]; 4T1, 24 hrs, M4N 80 μM, Rottlerin 5 μM, Ly294002 20 μM): Neither Ro nor Ly alone induced TUNEL-positive cell death
- TUNEL-positive cell death with M4N in cells transfected with control vectors (4T1 cells [2]; 4T1, 24 hrs, control vector): induced cell death synergistically with M4N
- effect on cell death induced by M4N (4T1 cells [2]; [15]): greatly enhanced cell death induced by M4N
- TUNEL-positive cell death ([9]; 28 hrs, M4N 80 μM, Ro 5 μM, Ly 20 μM): has no effect
- effect on cell death induced by M4N ([9]; 28 hrs, with M4N 80 μM): synergistically augmented cell death induced by M4N
- cell death with M4N over a broad range of concentrations ([9]; different concentrations of drugs): induced cell death synergistically
- cytotoxicity alone ([9]; tissue culture): non-cytotoxic
- cellular distribution / nuclear staining of total PKCδ (PKCδ [3]): did not change much
- nuclear staining for phosphor-PKCδ (Thr505) (PKCδ [3]): augmented staining
- depolarization of mitochondrial membrane potential [11]: depolarized mitochondrial membrane potential
- life-span of 67NR-bearing mice (67NR cells [12]): didn't have much effect on the life-span
- amount of phosphorylated PKCδ at Thr505 (PKCδ [4]): induced phosphorylation
- TUNEL-positive cell death with M4N in cells transfected with control vectors (67NR cells [5]; 24 hrs, control vector): induced cell death synergistically with M4N
- TUNEL-positive cell death (67NR cells [5]; 26 hrs, M4N 80 μM, Rottlerin 5 μM, Ly294002 20 μM): Neither Ro nor Ly alone induced TUNEL-positive cell death
- effect on cell death induced by M4N (67NR cells [5]; [16]): enhanced to some extent cell death induced by M4N
- expression and nuclear level of total PKCδ (PKCδ [13]): Neither M4N, Ro, nor Ly treatment caused any remarkable change
- nuclear expression of phosphor-PKCδ (Thr507) (PKCδ [13]): augmented
- caspase-9 activation (cleavage) (caspase-9): a small amount of caspase-9 is activated
- cell growth (MTT) [14]: suppressed cell growth to some extent

Structure (SMILES): COC(=O)C[C@H](NC(=O)[C@H](C)NC(=O)[C@@H](NC(=O)OCc1ccccc1)C(C)C)C(=O)CF [zVAD, zVAD-fmk] (Cbz-Val-Ala-Asp(OMe)-CH2F)
- effect of pan-caspase inhibitor on drug-induced TUNEL-positive cell death (4T1 cells [2]; 4T1, zVAD 50 μM added 30 minutes before other drugs): didn't affect TUNEL-positive cell death
- effect of pan-caspase inhibitor on drug-induced TUNEL-positive cell death (67NR cells [5]; zVAD 50 μM, 42 hrs): didn't affect TUNEL-positive cell death
